Here are results for two compounds from publication PMC6278385, “Preclinical Pharmacokinetics of C118P, a Novel Prodrug of Microtubules Inhibitor and Its Metabolite C118 in Mice, Rats, and Dogs” (Molecules, 2018).

Like-named read-outs stand apart in the source and are kept apart here.

The nature of data set [1]: PK in tumor-bearing nude mice after i.v. C118P. As to conditions: for concentration at 2 min: read-out: C2min. The format is in vivo, nude mice (BALB/cA) implanted with NCI-H460 tumor. How it is done:
The nude mice (BALB/cA) implanted with NCI-H460 tumor were provided by Shanghai Institute of Materia Medica. A total of 36 mice were divided into 9 groups with four animals in each group. After fasting overnight with free access to water, the mice were treated with 75 mg/kg C118P by i.v. The blood samples were collected at 2, 10, 20, 40 min, 1, 2, 4, 8, 12 h after treatment and the mice were anaesthetized and decapitated to obtain the blood and tumor tissue. Blood, brain, muscle, ovary, and lung from mice in the PK study were collected at 10 min, 1, 4, and 12 h. Tissues were cleaned by absorbent filter paper to remove the blood. Bloods were centrifuged at 10,000× g for 5 min. Each tissue (0.2 g) was homogenized with 2 mL water. The plasma samples and the homogenates were then processed and determined by the method described above. The concentration was determined by the calibration curve and the actual concentration was corrected by multiplying by 10 according to the dilution times.
The area under the plasma-concentration-versus-time curve from 0 to infinite (AUC0-inf), the elimination half-life (t1/2), the systemic plasma clearance (CL) and the volume of distribution (V) were calculated by non-compartmental analysis with WinNonlin software v6.3 (Pharsight Corporation, St. Louis, MO 63144, USA) from the plasma concentration data of C118P and C118, respectively. The instantaneous concentrations after intravenous to rats (C30s) or dogs (C2min) were obtained directly from the observed data.

The nature of data set [2]: Metabolic stability in liver microsomes. It is filed as in vitro ADME, human. How it is done: The in vitro metabolic stability of C118P and C118 were estimated in mice, rat, dog, monkey, and human liver microsomes (Research Institute for Liver Diseases Co. Ltd (Shanghai, China)). The incubation mixture contains C118P or C118, NADP (1.0 mM), G-6-P (10 mM), PDH (2 units/mL), MgCl2 (10 mM), and liver microsomes (mice, rats, dogs, monkeys, or humans, 1.0 mg protein/mL) in phosphate buffer. A total of 200 μL of the mixture was removed and quenched with 600 μL acetonitrile in an ice bath at 0, 15, 30, 60, 120, and 240 min after the addition of NADPH.
CLint, in vitro (the in vitro intrinsic clearance, Equation (1)) was calculated from the t1/2 of C118 disappearance, where Cprotein is the protein concentration during the incubation, and t1/2 was determined by the slope (k) of the log-linear regression analysis of the concentration versus time profiles; thus, t1/2 = ln2/k. […] The in vivo hepatic clearance (CLH, Equation (3)) was then calculated by using CLint and hepatic blood flow, Q ([…] mL·min^−1·kg^−1 in rats, dogs, monkey, and humans, respectively), in the well-stirred liver model disregarding all binding. The hepatic extraction ratio was calculated as CLH divided by Q. CLint, in vitro = (0.693/t1/2) × (1/Cprotein)(1) CLint = CLint, in vitro × (mg protein/g liver weight) × (gliver weight/kg body weight)(2) CLH = (Q × CLint)/(Q + CLint)(3)

Data set [3] is described as follows: Plasma protein binding by ultrafiltration.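 Note: fu expressed in percent not as a fraction.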 It is filed as in vitro ADME, Sprague-Dawley rats. Particulars: Sprague-Dawley, rat plasma, read-out: fu (fraction unbound). The procedure: Both C118P and C118 were stable in the plasma with EDTA as anticoagulant. The non-specific binding to the ultrafilter membrane was negligible. The extent of plasma protein binding was reported as a fraction unbound (fu, %) value which was calculated using the formula fu = PF/TC × 100%, where TC is test compound (C118P or C118) concentration in sample before ultrafiltration, and PF is the test compound concentration in the ultrafiltrate (Table 1).
Plasma protein binding of C118P and C118 were determined by ultrafiltration at four concentrations (C118P: 400, 4000, 40,000, and 400,000 ng/mL, C118: 20, 200, 2000, and 20,000 ng/mL) in pooled plasma from Sprague-Dawley rats, beagle dogs, and humans. Stock solutions of C118P and C118 dissolved in methanol were diluted with blank plasma to achieve the test concentrations (the methanol volume is less than 10% of the plasma). The plasma was incubated for 1 h in a water bath at 37 °C. The total concentration of C118P and C118 of spiked plasma (TC) was analyzed by previously described methods. Ultrafiltration was performed with activated high speed centrifugal tubes (Millipore, Burlington, MA, USA). Plasma samples (0.4 mL) were added to the upper layer of the high speed centrifugal tubes, and then centrifuged at 12,000 g for 10 min. The concentration of unbound C118P and C118 in filtrate (PF) was similarly determined by the previously described methods. The percentage of free fraction (fu) of C118P and C118 was calculated as follows: fu = (PF/TC) × 100%.

Data set [4] is described as follows: Whole blood/plasma ratio. Particulars: in rat, incubation 30 min. It is filed as in vitro ADME. How it is done:
The ratio of C118P and C118 in blood and plasma was studied. The whole blood was obtained from healthy volunteer and was separated into two parts to obtain whole blood and plasma. Standard solution was added into whole blood and plasma to mimic the incurred sample. After incubation for 30 min, the whole blood was separated into two parts. One was frozen and thawed to obtain the homogenous whole blood and the other sample was centrifuged to obtain plasma. The samples were analyzed by the established LC-MS/MS method and the blood plasma ratio was calculated.

[5] abbreviates: nude mice, tumor, i.v. C118P 75 mg/kg, n = 4.

Turning to `COc1cc(OC)cc(-c2nc[nH]c2-c2ccc(OC)c(OP(=O)([O-])[O-])c2)c1.[Na+].[Na+]` [C118P], the half-life was 1.96 ± 1.07 h in data set [1] (BALB/cA nude, mouse, in vivo, iv, 75 mg/kg, nude mice, plasma, i.v. C118P 75 mg/kg, n = 4) and 1.16 ± 0.76 h in data set [1] (BALB/cA nude, mouse, in vivo, iv, 75 mg/kg, nude mice, tumor, i.v. C118P 75 mg/kg, n = 4). Also, the AUC(0-inf) in data set [1] (BALB/cA nude, mouse, in vivo, iv, nude mice, plasma, i.v. C118P 75 mg/kg, n = 4, read-out: AUC0-inf) turned out to be 13500 ng·h/mL; in data set [1] (setting [5]), 217.7 ± 9.3 ng·h/g. In addition, the clearance in data set [1] (BALB/cA nude, mouse, in vivo, iv, nude mice, plasma, i.v. C118P 75 mg/kg, n = 4, read-out: CL (converted)) was 96.9 mL/min/kg. Moreover, the concentration at 2 min in data set [1] (BALB/cA nude, mouse, in vivo, nude mice, plasma, i.v. C118P 75 mg/kg, n = 4) came out at 106 µg/mL; in data set [1] (BALB/cA nude, mouse, in vivo, nude mice, tumor, i.v. C118P 75 mg/kg, n = 4) it was 292 ± 80.2 ng/g. For the same compound, the V in data set [1] (nude mice, plasma, i.v. C118P 75 mg/kg, n = 4) is 15,404.8 ± 7499.6 mL/kg. In addition, the “stability in liver microsomes” value in data set [2] (human liver microsomes (Figure S1)) was “quite stable”. Moreover, the free fraction (fraction unbound) at 1 h, 400 ng/mL in data set [3] (C118P 400 ng/mL) is 0.032 ± 0.001. Further, the fraction unbound at 1 h, 4000 ng/mL in data set [3] (C118P 4000 ng/mL) came to 0.029 ± 0.001. In data set [3] (C118P 40,000 ng/mL), the fraction unbound at 1 h, 40000 ng/mL was 0.024 ± 0.001. Also, in data set [3] (C118P 400,000 ng/mL), the unbound share (fraction unbound) at 1 h, 400000 ng/mL came out at 0.122 ± 0.006. The blood plasma ratio at 30 min in data set [4] stood at 0.8.

`COc1cc(OC)cc(-c2nc[nH]c2-c2ccc(OC)c(O)c2)c1` [C118]: the concentration at 2 min in data set [1] (BALB/cA nude, mouse, intravenous, nude mice, plasma, i.v. C118P 75 mg/kg, n = 4) was 42.5 µg/mL; in data set [1] (BALB/cA nude, mouse, intravenous, nude mice, tumor, i.v. C118P 75 mg/kg, n = 4), 13800 ng/g. Besides, the half-life in data set [1] (BALB/cA nude, mouse, iv, nude mice, plasma, i.v. C118P 75 mg/kg, n = 4) is 0.97 ± 0.1 h; in data set [1] (BALB/cA nude, mouse, iv, nude mice, tumor, i.v. C118P 75 mg/kg, n = 4), 3.7 ± 1.48 h; in data set [2] (human liver microsomes, 1.0 mg protein/mL, C118 disappearance), 0.198 h. Besides, the AUC(0-inf) in data set [1] (BALB/cA nude, mouse, iv, nude mice, plasma, i.v. C118P 75 mg/kg, n = 4, read-out: AUC0-inf) was 13400 ng·h/mL; in data set [1] (setting [5]), 73,027.8 ± 24,951.2 ng × h/g. Further, in data set [1] (BALB/cA nude, mouse, plasma, iv, 75 mg/kg, mice, in vivo, compared with extrapolated CLH, read-out: Observed CL), the clearance is 88.8 mL/min/kg. Also, the “CLint, in vitro” value in data set [2] (human liver microsomes) is given as 58.2 μL·min^−1·mg^−1 Protein. Also, the CLint in data set [2] (human, scaled from CLint, in vitro) was 47.9 mL/min/kg. The “Extrapolated CLH” value in data set [2] (human, well-stirred liver model) is 14.1 mL/min/kg. The free fraction (fraction unbound) at 1 h, 200 ng/mL in data set [3] (pooled plasma, C118 200 ng/mL) came out at 0.077 ± 0.008. Further, the free fraction (fraction unbound) at 1 h, 2000 ng/mL in data set [3] (pooled plasma, C118 2000 ng/mL) worked out at 0.065 ± 0.003. In addition, the free fraction (fraction unbound) at 1 h, 20000 ng/mL in data set [3] (pooled plasma, C118 20,000 ng/mL) is 0.055 ± 0.001. Further, the blood plasma ratio at 30 min in data set [4] (whole blood and plasma) was 1.05.
